For series [1], the target named is TRAF2 and NCK-interacting protein kinase (Homo sapiens, UniProt Q9UKE5). The series is described as follows: Inhibition of TNIK (unknown origin) at 1 uM by radiometric assay relative to control.
The target of series [2] is Citron Rho-interacting kinase (Homo sapiens) (UniProt O14578). As to the kind of experiment: Inhibition of CRIK (unknown origin) at 1 uM by radiometric assay relative to control.
Series [3] addresses T1, Dual specificity mitogen-activated protein kinase kinase 3 (Homo sapiens) (UniProt P46734).
T1 sequence (whole entry): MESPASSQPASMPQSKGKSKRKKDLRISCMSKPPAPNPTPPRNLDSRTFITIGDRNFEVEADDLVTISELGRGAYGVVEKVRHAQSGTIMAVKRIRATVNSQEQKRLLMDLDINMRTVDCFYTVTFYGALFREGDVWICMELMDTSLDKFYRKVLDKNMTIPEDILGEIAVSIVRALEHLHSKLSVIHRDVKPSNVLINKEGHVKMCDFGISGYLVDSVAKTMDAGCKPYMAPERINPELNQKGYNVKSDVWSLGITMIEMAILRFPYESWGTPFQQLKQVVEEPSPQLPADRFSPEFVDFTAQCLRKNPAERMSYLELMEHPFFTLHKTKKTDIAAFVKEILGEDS
The series is described as follows: Inhibition of MKK3 (unknown origin) at 1 uM by radiometric assay relative to control.

Series [4] has as its target T2, Serine/threonine-protein kinase NLK (Homo sapiens) (UniProt Q9UBE8).
T2 sequence (whole entry): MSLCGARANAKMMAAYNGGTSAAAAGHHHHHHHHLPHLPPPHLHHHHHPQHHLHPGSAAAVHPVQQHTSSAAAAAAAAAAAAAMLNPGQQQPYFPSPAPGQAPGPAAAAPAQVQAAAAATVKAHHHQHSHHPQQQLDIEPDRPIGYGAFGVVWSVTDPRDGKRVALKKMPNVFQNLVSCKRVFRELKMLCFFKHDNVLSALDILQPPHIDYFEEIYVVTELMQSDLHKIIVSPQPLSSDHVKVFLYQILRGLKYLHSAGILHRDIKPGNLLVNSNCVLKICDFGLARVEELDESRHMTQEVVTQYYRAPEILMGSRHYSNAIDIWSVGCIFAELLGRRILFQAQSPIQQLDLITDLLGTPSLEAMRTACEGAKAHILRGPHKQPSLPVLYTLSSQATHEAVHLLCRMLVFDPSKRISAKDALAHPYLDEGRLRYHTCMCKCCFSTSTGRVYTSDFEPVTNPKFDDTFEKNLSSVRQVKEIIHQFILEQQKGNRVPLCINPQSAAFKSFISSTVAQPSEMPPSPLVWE
The series is described as follows: Inhibition of NLK (unknown origin) at 1 uM by radiometric assay relative to control.

The target of series [5] is Epithelial discoidin domain-containing receptor 1 (Homo sapiens) (UniProt Q08345). The series is described as follows: Inhibition of DDR1 (unknown origin) at 1 uM by radiometric assay relative to control.
Series [6] has as its target Receptor-interacting serine/threonine-protein kinase 2 (Homo sapiens) (UniProt O43353). The series is described as follows: Inhibition of RIPK2 (unknown origin) at 1 uM by radiometric assay relative to control.
In series [7] the target is Mitogen-activated protein kinase kinase kinase 20 (Homo sapiens) (UniProt Q9NYL2). As to the kind of experiment: Inhibition of ZAK (unknown origin) at 1 uM by radiometric assay relative to control.
For series [8], the target named is Mitogen-activated protein kinase 14 (Homo sapiens, UniProt Q16539). As to the kind of experiment: Inhibition of p38 alpha (unknown origin).
Series [9] has as its target T3, TGF-beta receptor type-1 (Homo sapiens) (UniProt P36897).
T3 sequence (whole entry): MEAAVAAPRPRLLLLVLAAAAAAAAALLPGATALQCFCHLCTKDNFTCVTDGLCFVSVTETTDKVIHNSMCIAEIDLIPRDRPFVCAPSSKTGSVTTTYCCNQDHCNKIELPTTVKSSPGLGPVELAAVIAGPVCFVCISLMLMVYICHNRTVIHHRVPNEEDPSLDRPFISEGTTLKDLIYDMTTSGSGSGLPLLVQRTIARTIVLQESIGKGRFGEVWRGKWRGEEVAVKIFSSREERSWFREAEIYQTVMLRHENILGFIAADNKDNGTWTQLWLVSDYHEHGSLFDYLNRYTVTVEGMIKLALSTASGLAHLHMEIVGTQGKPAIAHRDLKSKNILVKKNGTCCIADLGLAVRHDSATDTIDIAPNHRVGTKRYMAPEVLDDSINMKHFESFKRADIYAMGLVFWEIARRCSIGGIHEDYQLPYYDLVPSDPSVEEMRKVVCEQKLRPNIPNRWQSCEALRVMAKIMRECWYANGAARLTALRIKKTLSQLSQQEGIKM
The series is described as follows: Inhibition of TGFBR1 (unknown origin) at 1 uM by radiometric assay relative to control.

Series [10] addresses Casein kinase I isoform delta (Homo sapiens, UniProt P48730). The series is described as follows: Displacement of kinase tracer 8 from NanoLuc-tagged CK1 delta (unknown origin) transfected in CHO cells by BRET assay. The class given is cell-based. (In general: BRET reads energy transfer from a luciferase to a nearby fluorophore.)
Series [11] is described as follows: Intrinsic clearance in human liver microsomes at 1 uM preincubated for 5 mins followed by NADPH addition measured for 60 mins by LC-MS/MS analysis. Particulars: time 65 min, read-out: CLH. In kind it is ADME, Microsome. (In general: Liver microsomes are a subcellular fraction often used to study metabolism.)
A short description of series [12]: Intrinsic clearance in rat liver microsomes at 1 uM preincubated for 5 mins followed by NADPH addition measured for 60 mins by LC-MS/MS analysis. In kind it is ADME, Microsome. Particulars: time 65 min, read-out: CLH.

Sequence of Receptor-interacting serine/threonine-protein kinase 2 (Homo sapiens) (O43353 whole entry): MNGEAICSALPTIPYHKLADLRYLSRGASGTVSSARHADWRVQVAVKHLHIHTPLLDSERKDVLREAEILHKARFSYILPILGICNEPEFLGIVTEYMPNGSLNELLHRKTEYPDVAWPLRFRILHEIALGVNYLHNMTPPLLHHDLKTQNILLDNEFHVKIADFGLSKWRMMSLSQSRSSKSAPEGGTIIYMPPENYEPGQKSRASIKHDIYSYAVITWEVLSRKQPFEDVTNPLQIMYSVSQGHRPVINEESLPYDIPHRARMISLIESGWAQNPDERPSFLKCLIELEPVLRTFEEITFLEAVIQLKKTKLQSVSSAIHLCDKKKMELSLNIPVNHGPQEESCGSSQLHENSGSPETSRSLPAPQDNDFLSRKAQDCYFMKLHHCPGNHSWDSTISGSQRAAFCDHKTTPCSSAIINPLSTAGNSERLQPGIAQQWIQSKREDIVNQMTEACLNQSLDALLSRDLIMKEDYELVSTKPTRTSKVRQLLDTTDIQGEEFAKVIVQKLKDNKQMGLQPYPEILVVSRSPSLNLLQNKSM
Sequence of Casein kinase I isoform delta (P48730 whole entry, canonical isoform): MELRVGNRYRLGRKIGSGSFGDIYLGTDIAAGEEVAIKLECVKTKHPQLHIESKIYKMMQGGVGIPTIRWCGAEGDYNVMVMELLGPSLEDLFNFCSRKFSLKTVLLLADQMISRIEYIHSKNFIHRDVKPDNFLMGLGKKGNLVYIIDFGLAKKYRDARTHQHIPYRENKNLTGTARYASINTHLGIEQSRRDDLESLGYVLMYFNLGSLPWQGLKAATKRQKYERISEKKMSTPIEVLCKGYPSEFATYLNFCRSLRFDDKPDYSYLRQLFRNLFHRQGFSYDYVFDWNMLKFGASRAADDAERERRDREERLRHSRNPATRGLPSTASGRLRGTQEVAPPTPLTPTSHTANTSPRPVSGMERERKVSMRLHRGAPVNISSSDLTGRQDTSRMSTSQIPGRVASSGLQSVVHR
Sequence of Citron Rho-interacting kinase (Homo sapiens) (O14578 whole entry): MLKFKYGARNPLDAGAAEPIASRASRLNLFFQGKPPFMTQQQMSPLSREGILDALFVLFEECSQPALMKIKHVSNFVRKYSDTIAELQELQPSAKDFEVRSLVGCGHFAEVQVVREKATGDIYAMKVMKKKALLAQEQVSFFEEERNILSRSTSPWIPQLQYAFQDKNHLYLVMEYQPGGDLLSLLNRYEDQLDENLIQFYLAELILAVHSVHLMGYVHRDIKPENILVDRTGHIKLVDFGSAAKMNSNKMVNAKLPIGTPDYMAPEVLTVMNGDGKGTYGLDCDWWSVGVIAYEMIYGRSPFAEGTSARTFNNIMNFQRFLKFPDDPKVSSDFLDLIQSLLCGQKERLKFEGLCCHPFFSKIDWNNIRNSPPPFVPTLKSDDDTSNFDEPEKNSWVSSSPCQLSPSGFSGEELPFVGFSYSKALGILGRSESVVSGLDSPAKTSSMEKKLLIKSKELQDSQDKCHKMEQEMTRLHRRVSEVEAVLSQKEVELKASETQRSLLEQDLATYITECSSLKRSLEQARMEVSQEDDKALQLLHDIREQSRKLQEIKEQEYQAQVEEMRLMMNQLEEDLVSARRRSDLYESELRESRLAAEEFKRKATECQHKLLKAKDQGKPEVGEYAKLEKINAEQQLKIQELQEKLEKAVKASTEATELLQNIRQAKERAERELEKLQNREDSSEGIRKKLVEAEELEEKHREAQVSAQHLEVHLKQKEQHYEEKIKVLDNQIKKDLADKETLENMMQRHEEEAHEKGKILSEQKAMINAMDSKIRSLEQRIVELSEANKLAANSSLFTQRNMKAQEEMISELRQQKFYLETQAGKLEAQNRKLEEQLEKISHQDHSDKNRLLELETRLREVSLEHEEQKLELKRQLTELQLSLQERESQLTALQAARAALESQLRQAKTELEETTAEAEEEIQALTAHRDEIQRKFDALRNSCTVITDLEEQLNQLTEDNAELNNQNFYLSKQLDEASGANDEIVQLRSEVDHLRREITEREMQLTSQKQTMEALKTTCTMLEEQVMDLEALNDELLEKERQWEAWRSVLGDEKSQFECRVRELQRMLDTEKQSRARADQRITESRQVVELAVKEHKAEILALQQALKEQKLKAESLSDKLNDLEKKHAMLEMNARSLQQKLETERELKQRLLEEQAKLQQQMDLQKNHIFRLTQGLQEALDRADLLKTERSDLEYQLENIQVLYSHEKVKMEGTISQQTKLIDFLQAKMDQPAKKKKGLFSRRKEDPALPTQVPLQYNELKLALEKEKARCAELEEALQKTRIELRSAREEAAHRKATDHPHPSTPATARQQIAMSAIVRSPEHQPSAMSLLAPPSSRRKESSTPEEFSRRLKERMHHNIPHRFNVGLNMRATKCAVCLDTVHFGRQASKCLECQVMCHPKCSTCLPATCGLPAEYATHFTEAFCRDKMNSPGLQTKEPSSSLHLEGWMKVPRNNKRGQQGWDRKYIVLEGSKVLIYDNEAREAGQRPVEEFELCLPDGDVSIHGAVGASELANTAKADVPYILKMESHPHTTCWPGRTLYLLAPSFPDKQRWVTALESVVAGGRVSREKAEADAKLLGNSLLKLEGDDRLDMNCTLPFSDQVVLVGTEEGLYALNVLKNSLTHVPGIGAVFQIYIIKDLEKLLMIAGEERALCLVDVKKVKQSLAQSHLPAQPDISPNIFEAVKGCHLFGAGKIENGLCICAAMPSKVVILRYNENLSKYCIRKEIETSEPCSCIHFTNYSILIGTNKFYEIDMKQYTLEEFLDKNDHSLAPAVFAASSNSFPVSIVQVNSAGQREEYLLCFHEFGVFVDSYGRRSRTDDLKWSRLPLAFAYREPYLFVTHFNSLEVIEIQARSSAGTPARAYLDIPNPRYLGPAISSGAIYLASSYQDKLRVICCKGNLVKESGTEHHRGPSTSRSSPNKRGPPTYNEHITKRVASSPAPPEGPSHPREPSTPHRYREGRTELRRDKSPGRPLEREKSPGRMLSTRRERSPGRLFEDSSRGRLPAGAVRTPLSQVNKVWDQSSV
Sequence of TRAF2 and NCK-interacting protein kinase (Q9UKE5 whole entry, looked up): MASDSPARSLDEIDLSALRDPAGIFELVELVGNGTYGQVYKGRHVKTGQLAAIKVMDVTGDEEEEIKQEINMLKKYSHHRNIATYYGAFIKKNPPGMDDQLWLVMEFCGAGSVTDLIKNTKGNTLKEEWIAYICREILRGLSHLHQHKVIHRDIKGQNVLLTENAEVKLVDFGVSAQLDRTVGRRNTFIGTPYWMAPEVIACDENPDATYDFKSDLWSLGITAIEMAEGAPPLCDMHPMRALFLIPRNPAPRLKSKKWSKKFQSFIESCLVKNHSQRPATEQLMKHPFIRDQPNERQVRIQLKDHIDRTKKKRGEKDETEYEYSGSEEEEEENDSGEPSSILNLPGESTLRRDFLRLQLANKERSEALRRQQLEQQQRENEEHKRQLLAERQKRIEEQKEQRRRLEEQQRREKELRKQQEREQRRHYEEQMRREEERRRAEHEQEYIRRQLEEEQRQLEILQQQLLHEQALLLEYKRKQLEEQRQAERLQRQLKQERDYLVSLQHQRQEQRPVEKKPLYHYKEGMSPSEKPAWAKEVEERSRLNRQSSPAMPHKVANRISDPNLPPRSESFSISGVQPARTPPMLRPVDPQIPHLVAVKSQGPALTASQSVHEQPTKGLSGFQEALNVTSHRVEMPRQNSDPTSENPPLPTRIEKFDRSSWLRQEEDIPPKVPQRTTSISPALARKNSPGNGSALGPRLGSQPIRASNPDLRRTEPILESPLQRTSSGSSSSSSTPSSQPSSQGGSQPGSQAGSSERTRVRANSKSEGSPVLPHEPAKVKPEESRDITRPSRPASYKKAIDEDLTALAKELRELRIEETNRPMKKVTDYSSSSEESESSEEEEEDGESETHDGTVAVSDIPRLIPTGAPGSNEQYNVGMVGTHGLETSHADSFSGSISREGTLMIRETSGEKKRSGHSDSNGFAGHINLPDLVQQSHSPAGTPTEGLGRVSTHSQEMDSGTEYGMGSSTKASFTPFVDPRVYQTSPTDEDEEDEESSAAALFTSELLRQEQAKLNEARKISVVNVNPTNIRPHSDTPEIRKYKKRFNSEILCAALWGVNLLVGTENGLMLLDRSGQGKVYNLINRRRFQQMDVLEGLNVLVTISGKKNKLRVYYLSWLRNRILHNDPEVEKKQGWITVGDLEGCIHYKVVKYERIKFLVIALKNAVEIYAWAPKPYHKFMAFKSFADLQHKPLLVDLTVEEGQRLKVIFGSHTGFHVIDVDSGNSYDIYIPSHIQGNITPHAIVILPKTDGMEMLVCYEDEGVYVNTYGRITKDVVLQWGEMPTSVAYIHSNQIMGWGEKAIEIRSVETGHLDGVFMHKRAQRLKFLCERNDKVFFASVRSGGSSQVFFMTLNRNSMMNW
Sequence of Mitogen-activated protein kinase 14 (Q16539 whole entry): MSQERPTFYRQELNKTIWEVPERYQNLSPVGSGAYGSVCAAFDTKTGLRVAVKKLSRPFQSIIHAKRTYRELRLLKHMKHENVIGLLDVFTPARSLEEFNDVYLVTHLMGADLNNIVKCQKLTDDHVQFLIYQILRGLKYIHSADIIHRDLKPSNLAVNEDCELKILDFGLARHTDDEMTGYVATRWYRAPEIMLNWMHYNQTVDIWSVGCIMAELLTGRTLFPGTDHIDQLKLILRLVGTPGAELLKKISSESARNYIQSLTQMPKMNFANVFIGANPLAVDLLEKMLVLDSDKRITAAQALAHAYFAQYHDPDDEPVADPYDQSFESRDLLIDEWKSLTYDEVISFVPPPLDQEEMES

Consider `Cc1cnc2[nH]ccc2c1-c1cn(C)nc1-c1ccc(F)cn1`, for which the inhibition in series [1] amounted to 54%; in series [2] it was 14%; in [3], 19%; in series [4], 0%; in series [5], 21%; in series [6], 0%. The inhibition in [7] is 30%; in series [9], 8%. This compound yielded an IC50 in series [8] of 3000 nM.

Turning to `Fc1ccc(-c2nn3c(c2-c2ccnc4[nH]ncc24)CCC(F)(F)C3)nc1`, the IC50 in series [10] turned out to be 300 nM.

On to `Fc1ccc(-c2nn3c(c2-c2ccnc4[nH]ccc24)COCC3)nc1`, for which the inhibition is 46% in series [1]; 5% in series [2]; 44% in [3]; 0% in series [4]; 6% in series [5]; 10% in series [6]. Moreover, the values for the inhibition in series [7] and in series [9] were 9% and 59%, respectively. For the same compound, the midpoint of inhibition in [8], the IC50, lay at 4000 nM.

For `Cn1cc(-c2cc(N)nc3[nH]ccc23)c(-c2ccc(F)cn2)n1`, the inhibition in series [1] is 39%; in [2], 0%; in series [3], 29%; in [4], 0%; in [5], 8%; in series [6], 3%. The inhibition in [7] came out at 18%; in series [9], 8%. Also, the IC50 in series [8] was above 10000 nM.

In the case of `Cn1cc(-c2ccnc3[nH]c(C(F)(F)F)cc23)c(-c2ccc(F)cn2)n1`, the inhibition in series [1] was determined as 85%; in [2], 54%; in series [3] it was 75%; in series [4] it was 83%; in [5], 68%; in series [6], 63%. The values for the inhibition in series [7] and in series [9] were 87% and 69%, respectively. Also, the figures for the IC50 in [10] and in series [8] were 250 nM and 200 nM, respectively.

Consider `CC1(C)Cn2nc(-c3ccc(F)cn3)c(-c3ccnc4[nH]ccc34)c2CO1`, for which the inhibition in [1] was 84%; in series [2] it was 15%; in series [3], 40%; in series [4], 16%; in series [5], 25%; in series [6], 39%. Further, the results for the inhibition in series [7] and in series [9] were 20% and 49%, respectively. Moreover, the microsomal CLint at 1 µM turned out to be 15.1 µL/min/mg in [11] and 42.9 µL/min/mg in series [12]. In addition, the IC50 in series [8] came out at 2100 nM.

In the case of `Cn1cc(-c2c(C#N)cnc3[nH]ccc23)c(-c2ccc(F)cn2)n1`, the inhibition in series [1] amounted to 88%; in [2], 9%; in series [3], 11%; in series [4], 17%; in series [5], 20%; in [6] it was 0%. Further, the inhibition in series [7] turned out to be 40%; in series [9], 17%. The compound also came in with an IC50 in series [8] of 6200 nM.

`Fc1ccc(-c2nn3c(c2-c2ccnc(NC4CCOCC4)n2)COCC3)cc1` yielded an IC50 in series [10] of 45 nM. In other words, the double-digit nanomolar range.

The term inhibition denotes how much of the control response was suppressed. A higher inhibition goes with strong suppression. By IC50 is commonly meant the concentration that inhibits the measured activity by half. Low values mean greater potency in that assay, high ones weaker potency in that assay.

Source of the values: ChEMBL document CHEMBL5335866, “Structure-Based Optimization of Selective and Brain Penetrant CK1δ Inhibitors for the Treatment of Circadian Disruptions” (ACS Med Chem Lett, 2024).
